According to US20120295917A1, “IMATINIB DICHL[…] ANTI-CANCER AGENT COMPRISING THE SAME” (CELLTRION PHARM, INC., priority 2009, published 2012):

How the values were obtained:
[1] = system: colorectal adenocarcinoma cells (HT29); test: Cytotoxicity test (MTT); type: cell-based; conditions: for absorbance value based on 100% of the absorbance value for the control: HT29, 72 hours, MTT, 570 nm, mean of n=3
Description: Using a medium containing 10% of fetal bovine serum (FBS), Rosewell Park Memorial Institute medium (RPMI) and 1% of penicillin/streptomycin, a 2×10^5 cells/ml suspension of colorectal adenocarcinoma cells (HT29) was prepared. The prepared suspension was seeded into each well of […] and cultured for 24 hours. Each sample was added to three wells and cultured (n=3).
The medium was removed from each well after 24 hours and the wells were washed with phosphate buffered saline (PBS). […] 100 µl of each prepared solution was seeded into the wells and cultured at 37° C. for 72 hours.
10 μl of 3-(4,5-dimethylthiazol-2-yl)-2,5-diphenyltetrazolium bromide (MTT) was added to each sample and cultured for 4 hours. The absorbance of the solution was measured at 570 nm using Enzyme-linked immunosorbent assay (ELISA).

[2] = Hygroscopicity test (Karl-Fischer titrator); type: physicochemical; conditions: 40° C., relative humidity 75%
[3] = accelerated condition for 28 days; in words
Description: Particularly, each imatinib acid addition salt was stored in a sealed state under an accelerated condition (a temperature of 40° C. and a relative humidity of 75%), and after 0 (zero), 3, 7, 14 and 28 days, the remaining rate of the active ingredient was analyzed with a high performance liquid chromatography (HPLC).

rats = conditions: cited from earlier work

| amount of moisture contained in the compound ([2]; 2 hours) | amount of moisture contained in the compound ([2]; 8 hours) | amount of moisture contained in the compound ([2]; 24 hours) | amount of moisture contained in the compound ([2]; 3 days) | amount of moisture contained in the compound ([2]; Initial) | stability compared with imatinib methanesulfonate (β crystalline form) [3] | SMILES | anti-cancer effects compared with imatinib methanesulfonate (β crystalline form) ([1]; HT29 cytotoxicity, in words) | absorbance value based on 100% of the absorbance value for the control ([1]; 1 nM) | absorbance value based on 100% of the absorbance value for the control ([1]; 10 nM) | absorbance value based on 100% of the absorbance value for the control ([1]; 100 nM) | LD50 (the lethal dose causing death in 50% of rats on oral administration) (rats) |
| --- | --- | --- | --- | --- | --- | --- | --- | --- | --- | --- | --- |
| 1.14 weight % | 1.18 weight % | 1.14 weight % | 1.26 weight % | 1.14 weight % | same or higher level of stability | Cc1ccc(NC(=O)c2ccc(CN3CCN(C)CC3)cc2)cc1Nc1nccc(-c2cccnc2)n1 [Imatinib dichloroacetate (crystalline form I)] | more potent anti-cancer effects |  |  |  |  |
|  |  |  |  |  |  | O=C(O)C(Cl)Cl [dichloroacetic acid] |  | 101.2% | 98.6% | 95.2% | 2,820 mg/kg |
| 0.83 weight % | 0.87 weight % | 0.86 weight % | 0.95 weight % | 0.85 weight % | same or higher level of stability | Cc1ccc(NC(=O)c2ccc(CN3CCN(C)CC3)cc2)cc1Nc1nccc(-c2cccnc2)n1 [Imatinib dichloroacetate (crystalline form II)] |  |  |  |  |  |
| 0.89 weight % | 0.86 weight % | 0.84 weight % | 1.11 weight % | 0.83 weight % |  | CS(=O)(=O)O.Cc1ccc(NC(=O)c2ccc(CN3CCN(C)CC3)cc2)cc1Nc1nccc(-c2cccnc2)n1 [Imatinib Methanesulfonate, reference compound] |  |  |  |  |  |
